The text below walks through data of ChEMBL document CHEMBL1201862, “PubChem BioAssay data set” (2004).

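Test compounds were applied to cells in 96-well plates for 48 hours at 5 doses. At the GI50, growth is halved.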 Active and inactive are the calls of the source. No stated cut-off is given here; in the data, active = GI50 up to about 1.1 µM and inactive = higher.

Some test systems named below: SF-295; HOP-62; OVCAR-5; IGROV-1; U-251; HCC 2998; UACC-257; NCI-H23; T47D; OVCAR-4; NCI-H522; MDA-MB-435; Hs-578T; TK-10; CAKI-1; HOP-92; HCT-15; SK-MEL-28; HL-60; UO-31.
Common to all, as to assay: NCI anticancer screen, dose series, 48 h

With `CC1(C)Oc2ccc3c(=O)c4ccccc4oc3c2C1C(=O)O` (stereo not given), the GI50 in the assay on SF-295, in the assay on HOP-62, in the assay on OVCAR-5, in the assay with IGROV-1, in the assay with U-251 and in the assay with HCC 2998 was > 100 µM (inactive) in each case. Further, the GI50 in the assay with UACC-257, in the assay with NCI-H23, in the assay with T47D, with OVCAR-4, in the assay with NCI-H522 and with MDA-MB-435 was > 100 µM (inactive) in each case. In addition, the GI50 with Hs-578T, in the assay on TK-10 and in the assay on CAKI-1 was > 100 µM (inactive) each time.
Consider `CCSc1[nH]c(NC(=S)NC(=O)c2ccccc2Cl)c(C(N)=O)c1C(N)=O`, for which the GI50 with SF-295, with HOP-62, with IGROV-1, in the assay with HCC 2998, in the assay with HOP-92 and in the assay on UACC-257 was > 10 µM (inactive) in each case. Besides, the GI50 in the assay on NCI-H23, in the assay with T47D, in the assay with OVCAR-4, with MDA-MB-435, with TK-10 and with CAKI-1 was > 10 µM (inactive) each time. Besides, the values for the GI50 in the assay on HCT-15, with SK-MEL-28 and in the assay on HL-60 were more than 10 µM, > 10 µM (inactive) and > 10 µM (inactive), respectively.
Consider `O=C1C(Cl)=C(OCCCCl)C(=O)c2c(O)ccc(O)c21`, for which the GI50 is 6.17 µM (inactive) with SF-295; 8.99 µM (inactive) in the assay on HOP-62; 12.4 µM (inactive) in the assay on OVCAR-5; 4.18 µM (inactive) with IGROV-1; 5.9 µM (inactive) in the assay on U-251; 14.8 µM (inactive) in the assay with HCC 2998. Moreover, the GI50 is 1.78 µM (inactive) in the assay on HOP-92; 2.32 µM (inactive) in the assay with UACC-257; 2.19 µM (inactive) in the assay with NCI-H23; 6.55 µM (inactive) in the assay on UO-31; 2.34 µM (inactive) in the assay on T47D; 2.74 µM (inactive) in the assay with OVCAR-4. The GI50 in the assay on Hs-578T is 4.91 µM (inactive); with TK-10, 3.12 µM (inactive); with CAKI-1, 1.21 µM (inactive); in the assay with HCT-15 it was 1.84 µM; in the assay with SK-MEL-28 it was 2.08 µM (inactive); with HL-60, 0.0715 µM (active).
Consider `O=C1C(C(c2ccccc2)N2CCOCC2)=C(O)C(c2ccccc2)N1c1ccccc1` (stereo not given), for which the GI50 in the assay with SF-295, in the assay on HOP-62, with OVCAR-5, in the assay with IGROV-1, with U-251 and in the assay with HCC 2998 was > 10 µM (inactive) throughout. The GI50 in the assay on UACC-257, in the assay on NCI-H23, in the assay on UO-31, in the assay with T47D, in the assay with NCI-H522 and in the assay with MDA-MB-435 was > 10 µM (inactive) in each case. In addition, the GI50 was > 10 µM (inactive) in the assay with Hs-578T; > 10 µM (inactive) in the assay with TK-10; > 10 µM (inactive) in the assay with CAKI-1; more than 10 µM with HCT-15; > 10 µM (inactive) in the assay on SK-MEL-28; > 10 µM (inactive) with HL-60.
Consider `Cc1ccc(S(=O)(=O)n2c3c(c4ccccc42)CCN2C[C@H]([C@H](C)Br)CC[C@@H]32)cc1`, for which the GI50 in the assay on SF-295 was > 100 µM (inactive); with HOP-62, > 100 µM (inactive); with OVCAR-5, > 100 µM (inactive); in the assay on IGROV-1, > 100 µM (inactive); with U-251, > 100 µM (inactive); in the assay with HCC 2998 it was 82.8 µM (inactive). Moreover, the GI50 in the assay on HOP-92, in the assay on UACC-257, in the assay with NCI-H23, in the assay with UO-31, with T47D and with OVCAR-4 was > 100 µM (inactive) each time. In addition, the GI50 in the assay on NCI-H522 is > 100 µM (inactive); in the assay with MDA-MB-435, 32.1 µM (inactive); with TK-10, > 100 µM (inactive); in the assay on CAKI-1, > 100 µM (inactive); with HCT-15, more than 100 µM; in the assay with SK-MEL-28, > 100 µM (inactive). The GI50 in the assay with HL-60 was 6.46 µM (inactive).
For `COC(=O)C1(O)C(c2ccccc2)NC2(C)CCCC21` (stereo not given), the GI50 in the assay on SF-295, in the assay on HOP-62, with IGROV-1, in the assay with U-251, with UACC-257 and in the assay on NCI-H23 was > 100 µM (inactive) each time. In addition, the GI50 in the assay on UO-31, in the assay with T47D, with OVCAR-4, in the assay on NCI-H522, in the assay with MDA-MB-435 and in the assay with Hs-578T was > 100 µM (inactive) throughout. In addition, the GI50 in the assay on TK-10 was > 100 µM (inactive); in the assay on CAKI-1, > 100 µM (inactive); in the assay on HCT-15, more than 100 µM; with SK-MEL-28, > 100 µM (inactive); in the assay on HL-60 it was > 100 µM (inactive).
For `O=C(Nc1ccccc1F)c1cc2ccc(O)cc2o/c1=N\c1ccccc1F`, the GI50 in the assay on SF-295 was 2.84 µM (inactive); in the assay with HOP-62, 2.19 µM (inactive); in the assay with OVCAR-5 it was 4.5 µM (inactive); in the assay with IGROV-1 it was 2.23 µM (inactive); with U-251, 1.93 µM (inactive); with HCC 2998 it was 2.99 µM (inactive). The GI50 in the assay on UACC-257 is 2.74 µM (inactive); in the assay on NCI-H23 it was 2.17 µM (inactive); in the assay on UO-31, 1.93 µM (inactive); in the assay on T47D, 1.96 µM (inactive); in the assay with OVCAR-4, 1.85 µM (inactive); in the assay with NCI-H522, 1.44 µM (inactive). For the same molecule, the GI50 with MDA-MB-435 is 2.03 µM (inactive); with Hs-578T it was 2.33 µM (inactive); in the assay on CAKI-1 it was 1.98 µM (inactive); with HCT-15, 2.47 µM; in the assay on SK-MEL-28 it was 2.45 µM (inactive); with HL-60 it was 2.09 µM (inactive).
Regarding `CCN(CC)C(=O)N[C@@H](Cc1ccccc1)C(=O)NC`, the GI50 with SF-295, with HOP-62, with OVCAR-5, with IGROV-1, with U-251 and in the assay on HCC 2998 was > 100 µM (inactive) each time. The GI50 in the assay with NCI-H23, with UO-31, in the assay on T47D, with OVCAR-4, in the assay with NCI-H522 and in the assay with MDA-MB-435 was > 100 µM (inactive) each time. The GI50 in the assay with Hs-578T is > 100 µM (inactive); in the assay with CAKI-1, > 100 µM (inactive); in the assay on HCT-15 it was more than 100 µM; in the assay with SK-MEL-28, > 100 µM (inactive); in the assay on HL-60, > 100 µM (inactive).
`Cn1c(COC(=O)NC2CCCCC2)c(COC(=O)NC2CCCCC2)c2ccc3ccccc3c21`: the GI50 is 41 µM (inactive) in the assay with SF-295; 35 µM (inactive) in the assay on HOP-62; 43.5 µM (inactive) with OVCAR-5; 19.1 µM (inactive) in the assay on IGROV-1; > 100 µM (inactive) in the assay on U-251; 28.1 µM (inactive) with HOP-92. In addition, the GI50 is 93.1 µM (inactive) in the assay with UACC-257; 21.8 µM (inactive) with NCI-H23; 34 µM (inactive) in the assay with UO-31; 50.4 µM (inactive) in the assay on T47D; 53.3 µM (inactive) in the assay on OVCAR-4; 16.2 µM (inactive) with NCI-H522. The GI50 was 14.3 µM (inactive) in the assay on MDA-MB-435; 33.2 µM (inactive) in the assay with Hs-578T; 33.7 µM (inactive) in the assay on TK-10; 11 µM (inactive) with CAKI-1; 48.1 µM in the assay with HCT-15.
Turning to `CC1C[C@]2(C)C(=O)N(c3ccccc3)C(=N)[C@@H]2N(C)c2ccccc21` (stereo not given in full), the GI50 with SF-295, in the assay on HOP-62, in the assay on OVCAR-5, in the assay on IGROV-1, in the assay on HCC 2998 and in the assay with UACC-257 was > 100 µM (inactive) each time. In addition, the GI50 in the assay on NCI-H23, with UO-31, in the assay on T47D, with OVCAR-4, with NCI-H522 and in the assay on MDA-MB-435 was > 100 µM (inactive) in each case. The GI50 is > 100 µM (inactive) in the assay on Hs-578T; > 100 µM (inactive) in the assay with TK-10; > 100 µM (inactive) in the assay with CAKI-1; more than 100 µM in the assay with HCT-15; > 100 µM (inactive) in the assay with SK-MEL-28; > 100 µM (inactive) with HL-60.
As for `Cc1cccc2nc3cc(O)cc(O)c3c(O)c12`, the GI50 in the assay on SF-295, in the assay on HOP-62, with OVCAR-5, in the assay on IGROV-1, with U-251 and in the assay with HOP-92 was > 10 µM (inactive) each time. For the same molecule, the GI50 with UACC-257, with NCI-H23, with UO-31, in the assay with T47D, in the assay on OVCAR-4 and in the assay with NCI-H522 was > 10 µM (inactive) in each case. For the same molecule, the GI50 in the assay with MDA-MB-435 is > 10 µM (inactive); in the assay with Hs-578T it was 2.86 µM (inactive); with TK-10 it was > 10 µM (inactive); in the assay on CAKI-1 it was > 10 µM (inactive); in the assay with HCT-15, more than 10 µM; with SK-MEL-28, > 10 µM (inactive).
